Test results published in patent US6673827B1, “Methods of treating fungal infections with inhibitors of NAD synthetase enzyme” (priority 1999, dated 2004).
Converted amounts (≈) assume the structure as drawn. Where two headings read alike, the source gives them in different places.

What was measured:
[1] = molecular target: T1, NAD synthetase (recombinant protein from B. subtilis; purified) (Bacillus subtilis, UniProt P08164); test: NAD synthetase enzyme inhibition assay (coupled enzymatic assay, HTS); format: biochemical; conditions: IC50 (μg/mL) for Inhibit. of NAD Synthetase, table of structures used in the yeast assay (Example 4)
T1 construct: made in house
Protocol: NAD Synthetase Enzyme Inhibition Assay-Determination of Test Compound Concentrations Providing 50% Inhibition ([…]) of the Maximum Enzyme Rate
The potential inhibitory activity of the synthetic compounds was determined by the use of a coupled enzymatic assay. The coupled assay involves two steps as summarized below. [drawing 98]
The measurement of inhibitory activities of the test compounds was facilitated by the use of a high through-put screening system (HTS system). The HTS system utilizes an integrated Sagian 2M ORCA robotic system coordinating the functions of a Beckman Biomek 2000 liquid handler and a Molecular Devices SpectraMax Plus spectrophotometer. The 2M ORCA robotic station is responsible for the movement of all hardware and the integration of multiple stations on the worksurface. The Biomek 2000 is programmed to perform all phases of liquid dispensing and mixing. The SpectraMax Plus spectrophotometer is equipped to monitor absorbance in a 96-well plate format.
The Biomek 2000 mixes these components utilizing a predefined mixing program. […] The reaction is monitored by measuring the increase in absorbance at 340 nm (NADH). The linear portion of the reaction is monitored for 180 sec. The initial velocity is determined using Softmax Pro, the software supplied with the Molecular Devices SpectrMax Plus spectrophotometer.
The test compounds were supplied as a stock solution with a concentration of 50 mM dissolved in 100% dimethyl sulfoxide (DMSO). An initial screen was conducted on all compounds using a 2 or 3 concentration screen. The 2 panel screen used concentrations of 0.2 mM and 0.1 mM for the compounds. The 3 panel screen used concentrations of 0.2 mM, 0.1 mM, and 0.05 mM. […] The IC50 values for each compound were determined graphically from a plot of % inhibition versus […].

[2] = test system: Candida tropicalis ATCC 750; test: In vitro study of inhibition of growth and lethality against yeast (MIC/MLC susceptibility test), isolate A; format: cell-based; conditions: Candida tropicalis, 2nd pair of lines, isolate assigned by line order; for MFC: ATCC750, read-out: Minimum Lethal Conc. (MLC)
[3] = test system: Candida tropicalis ATCC 28707; test: In vitro study of inhibition of growth and lethality against yeast (MIC/MLC susceptibility test), isolate B; format: cell-based; conditions: Candida tropicalis, 1st pair of lines, isolate assigned by line order; for MFC: ATCC28707, read-out: Minimum Lethal Conc. (MLC)
[4] = test system: Candida albicans KJP-000531594; test: In vitro study of inhibition of growth and lethality against yeast (MIC/MLC susceptibility test), isolate C; format: cell-based; conditions: Candida albicans, Candida albicans, 1st pair of lines; for MFC: KJP000531594, read-out: Minimum Lethal Conc. (MLC)
[5] = test system: Candida albicans LH-000664533; test: In vitro study of inhibition of growth and lethality against yeast (MIC/MLC susceptibility test), isolate D; format: cell-based; conditions: Candida albicans, Candida albicans, 2nd pair of lines, isolate assigned by line order; for MFC: LH000664533, read-out: Minimum Lethal Conc. (MLC)
[6] = test system: Torulopsis glabrata JHC-BC9951635; test: In vitro study of inhibition of growth and lethality against yeast (MIC/MLC susceptibility test), isolate E; format: cell-based; conditions: Torulopsis glabrata, 2nd pair of lines, isolate assigned by line order; for MIC / MFC: Nakaseomyces glabratus; for MFC: JHCBC9951635, read-out: Minimum Lethal Conc. (MLC)
[7] = test system: Torulopsis glabrata ERH-BC9938274; test: In vitro study of inhibition of growth and lethality against yeast (MIC/MLC susceptibility test), isolate F; format: cell-based; conditions: Torulopsis glabrata, 1st pair of lines, isolate assigned by line order; for MIC / MFC: Nakaseomyces glabratus; for MFC: ERHBC9938274, read-out: Minimum Lethal Conc. (MLC)
[8] = test system: Cryptococcus neoformans DLB-1027594CNC; test: In vitro study of inhibition of growth and lethality against yeast (MIC/MLC susceptibility test), isolate G; format: cell-based; conditions: Cryptococcus neoformans, Cryptococcus neoformans, 1st pair of lines, isolate assigned by line order; for MIC / MFC: DLB1027594CNC; for MFC: read-out: Minimum Lethal Conc. (MLC)
[9] = test system: Cryptococcus neoformans SLP-BC0012854; test: In vitro study of inhibition of growth and lethality against yeast (MIC/MLC susceptibility test), isolate H; format: cell-based; conditions: Cryptococcus neoformans, Cryptococcus neoformans, 2nd pair of lines, isolate assigned by line order; for MFC: SLPBC0012854, read-out: Minimum Lethal Conc. (MLC)
[10] = ATCC750, 24 h, read at 24 hr, read-out: Minimum Inhibitory Conc. (MIC), 24 hr.
[11] = ATCC750, 48 h, read at 48 hr, read-out: Minimum Inhibitory Conc. (MIC), 48 hr.
[12] = ATCC28707, 24 h, read at 24 hr, read-out: Minimum Inhibitory Conc. (MIC), 24 hr.
[13] = ATCC28707, 48 h, read at 48 hr, read-out: Minimum Inhibitory Conc. (MIC), 48 hr.
[14] = KJP000531594, 24 h, read at 24 hr, isolate not given, assigned by line order and MLC of Table 4B, read-out: Minimum Inhibitory Conc. (MIC), 24 hr.
[15] = KJP000531594, 48 h, read at 48 hr, isolate assigned by line order, read-out: Minimum Inhibitory Conc. (MIC), 48 hr.
[16] = LH000664533, 24 h, read at 24 hr, read-out: Minimum Inhibitory Conc. (MIC), 24 hr.
[17] = LH000664533, 48 h, read at 48 hr, read-out: Minimum Inhibitory Conc. (MIC), 48 hr.
[18] = JHCBC9951635, 24 h, read at 24 hr, read-out: Minimum Inhibitory Conc. (MIC), 24 hr.
[19] = JHCBC9951635, 48 h, read at 48 hr, read-out: Minimum Inhibitory Conc. (MIC), 48 hr.
[20] = ERHBC9938274, 24 h, read at 24 hr, read-out: Minimum Inhibitory Conc. (MIC), 24 hr.
[21] = ERHBC9938274, 48 h, read at 48 hr, read-out: Minimum Inhibitory Conc. (MIC), 48 hr.
[22] = 48 h, read at 48 hr, read-out: Minimum Inhibitory Conc. (MIC), 48 hr.
[23] = 72 h, read at 72 hr, read-out: Minimum Inhibitory Conc. (MIC), 72 hr.
[24] = SLPBC0012854, 48 h, read at 48 hr, read-out: Minimum Inhibitory Conc. (MIC), 48 hr.
[25] = SLPBC0012854, 72 h, read at 72 hr, read-out: Minimum Inhibitory Conc. (MIC), 72 hr.

T1 sequence (P08164 whole entry): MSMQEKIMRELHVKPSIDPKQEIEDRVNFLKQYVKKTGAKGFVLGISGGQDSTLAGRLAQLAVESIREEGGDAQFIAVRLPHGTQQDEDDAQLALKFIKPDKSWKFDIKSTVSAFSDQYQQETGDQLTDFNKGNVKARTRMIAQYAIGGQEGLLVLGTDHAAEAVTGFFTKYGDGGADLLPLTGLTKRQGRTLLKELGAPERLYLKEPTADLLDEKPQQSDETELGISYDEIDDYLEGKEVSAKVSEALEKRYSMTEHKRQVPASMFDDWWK

Structure (SMILES)	IC50 [1] [µM]	MFC [2] [µg/mL]	MIC [2, 10] [µg/mL]	MIC [2, 11] [µg/mL]	MFC [3] [µg/mL]	MIC [3, 12] [µg/mL]	MIC [3, 13] [µg/mL]	MIC [4, 14] [µg/mL]	MIC [4, 15] [µg/mL]	MFC ([4]; isolate assigned by line order) [µg/mL]	MIC [5, 16] [µg/mL]	MIC [5, 17] [µg/mL]	MFC [5] [µg/mL]	MIC [6, 18] [µg/mL]	MIC [6, 19] [µg/mL]	MFC [6] [µg/mL]	MIC [7, 20] [µg/mL]	MIC [7, 21] [µg/mL]	MFC [7] [µg/mL]	MIC [8, 23] [µg/mL]	other results
Cc1[nH]c2ccccc2c1/C=C/C1=[N+](C)c2ccccc2C1(C)C.[Cl-] [Compound 1400]	> 570	> 32	> 32	> 32	16	16	32	> 32	> 32	> 32	> 32	> 32	> 32	> 33	> 32	> 32	> 34	> 32	> 32	> 32	Minimum Inhibitory Conc. (MIC), 48 hr. ([3]; read at 48 hr): 16 µg/mL; Minimum Inhibitory Conc. (MIC), 24 hr. ([6]; read at 24 hr): >32 µg/mL; Minimum Inhibitory Conc. (MIC), 24 hr. ([7]; read at 24 hr): >32 µg/mL; MIC [8, 22]: > 32 µg/mL; MFC [8]: > 32 µg/mL; MIC [9, 24]: > 32 µg/mL; MIC [9, 25]: > 32 µg/mL; MFC [9]: > 32 µg/mL
COC(=O)c1cc2cc(OCc3ccccc3)ccc2n1CCCCCCCOC(=O)c1ccc(CN(C)C)cc1 [Compound 1096]	180	> 32	> 32	> 32	16 (≈ 28.7 µM)	4 (≈ 7.19 µM)	8 (≈ 14.4 µM)	> 32	> 32	> 32	> 32	> 32	> 32	> 32	> 32	> 32	> 32	> 32	> 32	> 32	Minimum Inhibitory Conc. (MIC), 24 hr. ([3]; read at 24 hr): 2 µg/mL; Minimum Inhibitory Conc. (MIC), 48 hr. ([3]; read at 48 hr): 16 µg/mL; Minimum Inhibitory Conc. (MIC), 72 hr. ([8]; read at 72 hr): 16 µg/mL; MFC [8]: > 32 µg/mL; Minimum Inhibitory Conc. (MIC), 48 hr. ([9]; read at 48 hr): 32 µg/mL; Minimum Inhibitory Conc. (MIC), 72 hr. ([9]; read at 72 hr): 32 µg/mL; MIC [9, 24]: > 32 µg/mL; MIC [9, 25]: > 32 µg/mL; MFC [9]: > 32 µg/mL
C[N+](C)(C)C(Cc1ccccc1)C(=O)OCCCCCCCCOc1ccc(OCc2ccccc2)cc1.[I-] (stereo not shown) [Compound 1230]	31	1	1	1	1	0.5	0.5	1	2	2	2	4	2	1	2	2	2	2	2	1	Minimum Inhibitory Conc. (MIC), 24 hr. ([5]; read at 24 hr): 1 µg/mL; Minimum Inhibitory Conc. (MIC), 48 hr. ([5]; read at 48 hr): 2 µg/mL; Minimum Inhibitory Conc. (MIC), 24 hr. ([6]; read at 24 hr): 2 µg/mL; Minimum Inhibitory Conc. (MIC), 48 hr. ([8]; read at 48 hr): 0.5 µg/mL; Minimum Inhibitory Conc. (MIC), 72 hr. ([8]; read at 72 hr): 2 µg/mL; MIC [8, 22]: 1 µg/mL; MFC [8]: 4 µg/mL; Minimum Inhibitory Conc. (MIC), 72 hr. ([9]; read at 72 hr): 2 µg/mL; MIC [9, 24]: 1 µg/mL; MIC [9, 25]: 1 µg/mL; MFC [9]: 4 µg/mL
